{"source": "patent US20200383985A1", "about": "“Inhibitors of Protease Activated Receptor-2” (Endosome Therapeutics, Inc., priority 2017, published 2020)", "key": {"PKC and cAMP": {"tested_on": "PKC and cAMP", "test": "FRET assays of PKC and cAMP in HEK293 cells", "assay_type": "cell-based", "conditions": "HEK293 cells", "description": "I-343, but not SCH530348, inhibited trypsin stimulation of PKC and cAMP, which thus depend on PAR2 (FIGS. 19G and H). […] The sustained plasma membrane cAMP response to trypsin support the existence of mechanisms that allow persistent PAR2 signaling, which warrant further investigation.\nHEK293 cells were cultured in DMEM supplemented with 10% (v/v) FBS (5% CO2, 37° C.). When necessary serum restriction was achieved by replacing culture medium with DMEM containing 0.5% FBS overnight. Cells were transiently transfected using polyethylenimine (PEI) (1:6 DNA:PEI).\nHEK293 cells were transiently transfected in 10 cm dishes (˜50% confluency) with Flag-PAR2-HA (2.5 μg) and FRET biosensors CytoEKAR or NucEKAR (2.5 μg) (Jensen, D. D. et al., Sci Transl Med. 2017, 9(392), eaal3447; Thomsen, A. R. B., et al., Cell 2016, 166(4): 907-919). In experiments examining the role of dynamin, cells were transfected with FLAG-PAR2-HA (1.25 μg), FRET biosensor (1.25 μg) and either DynWT-HA, DynK44E-HA or pcDNA3.1 (2.5 μg). At 24 h after transfection, cells were seeded on ViewPlate-96 well plates (PerkinElmer). FRET was assessed 72 h post-transfection, following overnight serum restriction. Cells were equilibrated in HBSS-HEPES (30 min, 37° C.). FRET was measured using a PHERAstar FSX Microplate Reader (BMG LabTech). For CFP/YFP emission ratio analysis, cells were sequentially excited using a CFP filter (425/10 nm) with emission measured using YFP (550/50 nm) and CFP (490/20 nm) filters. FRET was measured before and after stimulation with trypsin (10 nM), NE (100 nM), CS (100 nM), phorbol 12,13-dibutyrate, PDBu (positive control, 1 μM), or vehicle. FRET ratios (donor/acceptor intensity for EKAR, or acceptor/donor intensity for CKAR and Epac) were calculated and corrected to baseline and vehicle treatments to determine ligand-induced FRET (ΔFRET). Treatment effects were determined by comparison of area under the curve values. Signalling inhibitors were dissolved in HBSS-HEPES. PS2 and PS2 inact were dissolved in HBSS-HEPES+1% DMSO. […]"}, "PKC and ERK activity": {"tested_on": "PKC and ERK activity", "test": "FRET assays of compartmentalized PKC and ERK in DRG neurons", "assay_type": "cell-based, rat", "conditions": "I-343 10 μM, SCH530348 100 nM", "description": "To determine whether trypsin causes PAR2-dependent activation of PKC and ERK, which respectively mediate initial and persistent trypsin-induced hyperexcitability of nociceptors, genetically-encoded Förster Resonance Energy Transfer (FRET) biosensors were expressed in neurons. […] Trypsin (10 or 100 nM) activated PKC at the plasma membrane but not in the cytosol (FIG. 4E-G), and activated ERK in the cytosol and nucleus (FIG. 4H-J). The PAR2 antagonist I-343 (10 μM) inhibited trypsin-induced activation of PKC and ERK, whereas the PAR1 antagonist SCH530348 (100 nM) had no effect (FIG. 4F, I). At the end of experiments, neurons were challenged with the positive controls phorbol 12,13-dibutyrate (PDBu) for EKAR biosensors or PDBu plus phosphatase inhibitor mixture-2 for CKAR biosensors, to ensure that the response of the biosensor was not saturated.\nDRG were collected from C57BL/6 mice and Sprague-Dawley rats (all levels). DRG were incubated with collagenase IV (2 mg/ml) and dispase II (1 mg/ml) for 30 min (mice) and 45 min (rats) at 37° C. DRG were dispersed by trituration with a fire-polished Pasteur pipette. Dissociated neurons were transfected with mPAR2-GFP (1 μg), the FRET biosensors CytoEKAR, NucEKAR, pmCKAR or CytoCKAR (all […]), or with the BRET biosensors PAR2-RLuc8 (125 ng) and βARR2-FYP (475 ng) using the Lonza 4D-Nucleofector X unit according to the manufacturer's instructions. Neurons were plated on laminin- (0.004 mg/ml) and poly-L-Lysine- (0.1 mg/ml) coated glass coverslips for confocal microscopy, on ViewPlate-96 plates (PerkinElmer) for FRET assays, or on CulturPlates (PerkinElmer) for BRET assays. Neurons were maintained in Dulbecco's modified Eagle medium (DMEM) containing 10% fetal bovine serum (FBS), antibiotic-antimitotic, and N1 supplement for 48 h before study.\nRat DRG neurons expressing FRET biosensors were serum-restricted (0.5% FBS overnight), and equilibrated in HBSS-HEPES (10 mM HEPES, pH 7.4, 30 min, 37° C.). FRET was analyzed using an Operetta CLS High-Content Imaging System (PerkinElmer) or an INCell Analyzer 2000 G E Healthcare Life Sciences). For CFP/YFP emission ratio analysis, cells were sequentially excited using a CFP filter (410-430 nm) with emission measured using YFP (520-560 nm) and CFP (460-500 nm) filters. Cells were imaged at 1 or 2 min intervals. Baseline was measured, neurons were challenged with trypsin (10 or 100 nM) or vehicle, and responses recorded for a further 30 min. Neurons were then challenged with phorbol 12,13-dibutyrate (PDBu, 200 nM, 10 min) for EKAR biosensors or PDBu (200 nM) and phosphatase inhibitor cocktail-2 (SigmaAldrich, 10 min) for CKAR biosensors. Data were analyzed using Harmony 4.1 or Image J 1.51 software. Images taken were aligned, cells were selected based on diameter, and fluorescence intensity was calculated for both FRET and CFP channels. Background intensity was subtracted and the FRET ratio was determined as the change in the FRET/donor (EKAR) or donor/FRET (CKAR) emission ratio relative to the baseline for each cell (F/Fo). Cells with >5% changes in F/F0 after PDBu stimulation were selected for analysis. Neurons were incubated with I-343 (10 μM), SCH530348 (100 nM) or vehicle (30 min, 37° C. preincubation and inclusion throughout)."}}, "data": [{"compound": "CCOC(=O)N[C@@H]1CC[C@@H]2[C@@H](C1)C[C@H]1C(=O)O[C@H](C)[C@H]1[C@H]2/C=C/c1ccc(-c2cccc(F)c2)cn1", "note": "[SCH530348]", "values": [{"measurement": "trypsin stimulation of PKC and cAMP", "setting": "PKC and cAMP", "result": "not"}, {"measurement": "trypsin-induced activation of PKC and ERK", "setting": "PKC and ERK activity", "result": "no effect"}]}]}
